“Also recorded” adds a separate entry of the source.
Tests used:
[1] = test system: platelet aggregability; conditions: aspirin resistant or aspirin semiresponders; literature 2001-2004; cited from earlier work
[2] = ESPS-2; J Neurol Sci. 1996; Neurology 1998; cited from earlier work
[3] = test system: Thrombin receptor (PAR-1); assay: Flow cytometry: intact (SPAN12) and cleaved (WEDE15) PAR-1 thrombin receptors on platelets; assay type: cell-based, human; conditions: for Thrombin receptor (PAR-1) WEDE 15 (epitope of cleaved receptors) / Thrombin receptor (PAR-1) SPAN 12 (epitope of intact receptor): non-responder blood, 45 min; for Thrombin receptor (PAR-1) WEDE 15 (epitope of cleaved receptors): baseline 20.2 ± 3.4; for Thrombin receptor (PAR-1) SPAN 12 (epitope of intact receptor): baseline 31.6 ± 6.4
Description: (§1) Aspirin/clopidogrel resistance is defined by lack of platelet inhibition after one month of mono- or combination therapy. Lack of platelet inhibition is defined when 4 out of the following 5 parameters are met: ADP-induced platelet aggregation remains >60%; collagen-induced aggregation >70%; whole blood aggregation >18 ohms; expression of GP IIb/IIIa >220 log MFI; and P-selectin cell positivity >8%.
(§2) Experiments are done (blood is incubated) with dipyridamole 2 μM/L and 4 μM/L.
(§3) Twenty ml of blood were collected from each participant, divided into 3 parts, and 2 parts were incubated for 45 min with 2 μM/L and 4 μM/L of Dipyridamole. This concentration corresponds to the physiological Dipyridamole concentration in plasma achieved 0.8-12 hours after oral administration of Aggrenox (25 mg of aspirin+200 mg of Dipyridamole). The third portion was incubated with the vehicle and served as internal control.
(§4) Patients on other antithrombotic agents including COX inhibitors, and NSAID were excluded. Blood samples were pretreated with dipyridamole (2 mkg/ml, 4 mkg/ml), simulating the therapeutic range, and then incubated for 45 minutes at 37° C. Platelets were assessed by conventional (1 μM collagen, 0.75 μM arachidonic acid, and 5 μM ADP), and whole blood (1 mg/ml collagen) aggregometry; the expression of GP IIb/IIIa, P-selectin, annexin V binding, intact (SPAN12), and cleaved (WEDE15) PAR-1 thrombin receptors by flow cytometry. Markers of TR (D-Dimer, Thrombin-Antithrombin-III Complexes, and Prothrombin Fragment F1+2) were measured in the autologous plasma samples by ELISA.

[4] = test system: platelets; assay: Platelet aggregation, conventional aggregometry, in blood of aspirin/clopidogrel resistant stroke/TIA patients pretreated in vitro with dipyridamole; assay type: cell-based, human; conditions: for Platelet aggregation 5 μM ADP: baseline 65.5 ± 6.3; for Platelet aggregation Collagen 1 μM / Platelet aggregation Arachidonic Acid 0.75 μM: non-responder blood, 45 min; for Platelet aggregation Collagen 1 μM: baseline 65.9 ± 8.9; for Platelet aggregation Arachidonic Acid 0.75 μM: baseline 72.5 ± 9.5
Description: as §1, §2, §3, §4

[5] = test system: GP IIb/IIIa; assay: Flow cytometry: platelet expression of CD41a (GP IIb/IIIa); assay type: cell-based, human; conditions: for Flow-cytometry CD41a (GP IIb), MFI: non-responder blood, 45 min, baseline 429.0 ± 52.1
Description: as §1, §2, §3, §4

[6] = test system: Annexin V binding sites on platelets; assay: Flow cytometry: Annexin V binding on platelets; assay type: cell-based, human; conditions: for Annexin V binding (PS % positive cells): non-responder blood, 45 min, baseline 9.5 ± 2.7
Description: as §1, §2, §3, §4

[7] = test system: P-selectin; assay: Flow cytometry: platelet expression of CD62p (P-selectin); assay type: cell-based, human; conditions: non-responder blood, 45 min, baseline 10.0 ± 1.8
Description: as §1, §2
as §3, with “The third portion was incubated with the vehicle and served as internal control.” left out
as §4, with “Blood samples were pretreated with dipyridamole (2 mkg/ml, 4 mkg/ml), simulating the therapeutic range, and then incubated for 45 minutes at 37° C.” left out

[8] = test system: thrombin generation; assay: Thrombin generation markers in autologous plasma by ELISA; assay type: cell-based, human; conditions: for Prothrombin fragment F1 + 2 / Thrombin-antithrombin III Complex / Thrombin generation markers D-dimer: non-responder blood, 45 min; for Prothrombin fragment F1 + 2: baseline 1.9 ± 1.0; for Thrombin-antithrombin III Complex: baseline 3.2 ± 1.1; for Thrombin generation markers D-dimer: baseline 325.0 ± 84.6
Description: as §1, §2, §3, §4

[9] = addition of DIP in vitro in AR patients
[10] = Dipyridamole 4 μg/ml, p = 0.022
[11] = DIP in vitro, 2 and 4 mkg/ml, blood of AR patients, listed as DIP

For CC(=O)Oc1ccccc1C(=O)O [ASA, acetylsalicylic acid], the “patients treated with ASA who did not show appropriate reduction in platelet aggregability” value [1] is given as “up to 30%”.
In the case of OCCN(CCO)c1nc(N2CCCCC2)c2nc(N(CCO)CCO)nc(N3CCCCC3)c2n1 [Dipyridamole, 2,6-bis(diethanolamino)-4,8-dipiperidino-pyrimido[5,4-d]pyrimidine], the “reduction of stroke risk” value [2] is listed as “as effective as low-dose aspirin”, the “PAR-1 receptors (in words)” value [3, 9] is listed as “sustained blockade” and the “expression of intact PAR-1 receptor (in words)” value ([3]; after incubation with 2 mkg/ml and 4 mkg/ml of dipyridamole (p=0.02 and p=0.024)) is listed as “diminished expression”. For the same molecule, the “Thrombin receptor (PAR-1) WEDE 15 (epitope of cleaved receptors)” value ([3]; Dipyridamole 2 μg/ml, p = 0.0507) was 18.4 ± 3.1, the “Thrombin receptor (PAR-1) SPAN 12 (epitope of intact receptor)” value ([3]; Dipyridamole 2 μg/ml, p = 0.02) was 27.8 ± 5.4 and the “Thrombin receptor (PAR-1) WEDE 15 (epitope of cleaved receptors)” value [3, 10] was 18.1 ± 3.0. For the same molecule, the “Thrombin receptor (PAR-1) SPAN 12 (epitope of intact receptor)” value ([3]; Dipyridamole 4 μg/ml, p = 0.024) was 29.1 ± 5.5, the “activity of the cleaved PAR-1 (in words)” value ([3]; only after incubation with 4 mkg/ml, statistically significant (p=0.022)) was “decreased activity” and the “Platelet aggregation / aggregometry (in words)” value [4, 11] was “not affected; also recorded: not changed”. The “Platelet aggregation 5 μM ADP” value ([4]; non-responder blood (n = 20) incubated 45 min at 37° C. with Dipyridamole 2 μg/ml, p = 0.13) was 63.6 ± 6.8%, the “Platelet aggregation 5 μM ADP” value ([4]; non-responder blood (n = 20) incubated 45 min at 37° C. with Dipyridamole 4 μg/ml, p = 0.66) was 63.8 ± 6.8% and the “Platelet aggregation Collagen 1 μM” value ([4]; Dipyridamole 2 μg/ml, p = 0.13) was 64.2 ± 7.4%. The “Platelet aggregation Arachidonic Acid 0.75 μM” value ([4]; Dipyridamole 2 μg/ml, p = 0.41) was 71.4 ± 7.3, the “Platelet aggregation Collagen 1 μM” value ([4]; Dipyridamole 4 μg/ml, p = 0.38) was 64.2 ± 6.9% and the “Platelet aggregation Arachidonic Acid 0.75 μM” value ([4]; Dipyridamole 4 μg/ml, p = 0.12) was 70.6 ± 6.2. The “GP IIb/IIIa (in words)” value [5, 9] was “sustained blockade”, the “Flow-cytometry CD41a (GP IIb), MFI” value ([5]; Dipyridamole 2 μg/ml, p = 0.12) was 417.6 ± 49.5 MFI and the “Flow-cytometry CD41a (GP IIb), MFI” value ([5]; Dipyridamole 4 μg/ml, p = 0.22) was 419.4 ± 49.1 MFI. The “annexin V binding (in words)” value ([6]; after incubation with 2 mkg/ml and 4 mkg/ml of dipyridamole (p=0.031 and p=0.02), listed as DIP) was “diminished; also recorded: sustained blockade”, the “Annexin V binding sites compared to pre-incubation” value ([6]; incubation of cells with DIP, patients with anti-platelet therapy resistance, e.g. ASA or clopidogrel resistance) was “significant reduction” and the “Annexin V binding (PS % positive cells)” value ([6]; Dipyridamole 2 μg/ml, p = 0.031) was 7.9 ± 2.3 % positive cells. For the same molecule, the “Annexin V binding (PS % positive cells)” value [6, 10] was 7.7 ± 1.9 % positive cells, the “Flow-cytometry CD62p (P-selectin), % +” value ([7]; Dipyridamole 2 μg/ml, p = 0.308) was 9.4 ± 2.8 % + and the “Flow-cytometry CD62p (P-selectin), % +” value ([7]; Dipyridamole 4 μg/ml, p = 0.21) was 9.4 ± 2.4 % +. For the same molecule, the “TG markers / TR markers (in words)” value [8, 11] was “not affected; also recorded: not changed”, the “Prothrombin fragment F1 + 2” value ([8]; Dipyridamole 2 μg/ml, p = 0.17) was 1.8 ± 1.0 nM/L and the “Thrombin-antithrombin III Complex” value ([8]; Dipyridamole 2 μg/ml, p = 0.49) was 3.2 ± 1.2 µg/L. The “Thrombin generation markers D-dimer” value ([8]; Dipyridamole 2 μg/ml, p = 0.55) was 316.1 ± 90.1 µg/L, the “Prothrombin fragment F1 + 2” value ([8]; Dipyridamole 4 μg/ml, p = 0.41) was 1.8 ± 0.9 nM/L and the “Thrombin-antithrombin III Complex” value ([8]; Dipyridamole 4 μg/ml, p = 0.24) was 3.1 ± 1.2 µg/L. The “Thrombin generation markers D-dimer” value ([8]; Dipyridamole 4 μg/ml, p = 0.48) was 310.8 ± 83.8 µg/L.

Source: US20090048173A1, “Use Of Dipyridamole For Treatment Of Resistance To Platelet Inhibitors” (priority 2004, published 2009)
